This is an account of results in patent US20260191863A1, “PYRROLOPYRIMIDINE COMPOSITIONS FOR TREATMENT OF ITK MEDIATED CONDITIONS” (ACLARIS THERAPEUTICS, INC., priority 2022, published 2026).

Assay type in all cases: cell-based
One test concerns the target T1, ITK (Homo sapiens, UniProt Q08881).
T1 construct: (Jurkat/pPLCγ1); endogenous in cells; host or cells: Jurkat
T1 sequence (Q08881 1-620): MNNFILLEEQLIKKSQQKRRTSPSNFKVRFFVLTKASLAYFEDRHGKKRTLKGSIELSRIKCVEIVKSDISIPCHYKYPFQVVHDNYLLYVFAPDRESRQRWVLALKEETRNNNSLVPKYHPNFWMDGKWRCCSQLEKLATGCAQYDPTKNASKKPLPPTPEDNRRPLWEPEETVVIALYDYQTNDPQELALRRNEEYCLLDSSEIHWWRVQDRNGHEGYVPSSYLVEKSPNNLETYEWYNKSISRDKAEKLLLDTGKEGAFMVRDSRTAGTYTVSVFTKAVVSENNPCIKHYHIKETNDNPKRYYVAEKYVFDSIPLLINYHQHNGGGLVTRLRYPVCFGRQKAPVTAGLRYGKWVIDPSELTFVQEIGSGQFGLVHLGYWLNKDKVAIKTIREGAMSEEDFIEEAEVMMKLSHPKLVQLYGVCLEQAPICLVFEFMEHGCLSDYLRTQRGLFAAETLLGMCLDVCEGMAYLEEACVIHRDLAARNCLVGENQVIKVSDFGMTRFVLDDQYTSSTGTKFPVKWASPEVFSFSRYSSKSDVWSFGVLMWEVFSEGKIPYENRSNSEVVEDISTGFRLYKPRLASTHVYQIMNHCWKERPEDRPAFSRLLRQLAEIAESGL
Description: Cell IC50 ITK (Jurkat/pPLCγ1).

A further test has as its system ITK & JAK (IFNγ protein). Description: Pre-clinical human whole blood αCD3 + IL-15/IFNγ (18 hr). Conditions: Homo sapiens, 18 h; read-out: Human Whole Blood EC50, αCD3 + IL-15/IFNγ (18 hr).
The next test concerns ITK (IL2 mRNA). Description: Pre-clinical human whole blood αCD3/28/IL-2 mRNA (2 hr). Conditions: Homo sapiens, 2 h; read-out: Human Whole Blood EC50, αCD3/28/IL-2 mRNA (2 hr).
In another test the test system is JAK3 (pSTAT5, lymph). Description: Pre-clinical human whole blood IL-2/pSTAT5 (20 min), lymphocytes. Conditions: Homo sapiens, Lymphocyte, 20 min; read-out: Human Whole Blood EC50, IL-2/pSTAT5 (20 min).
For test [1], the system named is IL15 stimulated IFNγ protein. Description: Pre-clinical human whole blood IL-15/IFNγ (5 hr). Conditions: Homo sapiens, 5 h, read-out: Human Whole Blood EC50, IL-15/IFNγ (5 hr).
Another test concerns the target T2, JAK2 (Homo sapiens, UniProt O60674).
T2 construct: endogenous in cells
Description: Cell IC50 JAK2.

Each structure is given as a SMILES string.

T2 sequence (O60674 whole entry): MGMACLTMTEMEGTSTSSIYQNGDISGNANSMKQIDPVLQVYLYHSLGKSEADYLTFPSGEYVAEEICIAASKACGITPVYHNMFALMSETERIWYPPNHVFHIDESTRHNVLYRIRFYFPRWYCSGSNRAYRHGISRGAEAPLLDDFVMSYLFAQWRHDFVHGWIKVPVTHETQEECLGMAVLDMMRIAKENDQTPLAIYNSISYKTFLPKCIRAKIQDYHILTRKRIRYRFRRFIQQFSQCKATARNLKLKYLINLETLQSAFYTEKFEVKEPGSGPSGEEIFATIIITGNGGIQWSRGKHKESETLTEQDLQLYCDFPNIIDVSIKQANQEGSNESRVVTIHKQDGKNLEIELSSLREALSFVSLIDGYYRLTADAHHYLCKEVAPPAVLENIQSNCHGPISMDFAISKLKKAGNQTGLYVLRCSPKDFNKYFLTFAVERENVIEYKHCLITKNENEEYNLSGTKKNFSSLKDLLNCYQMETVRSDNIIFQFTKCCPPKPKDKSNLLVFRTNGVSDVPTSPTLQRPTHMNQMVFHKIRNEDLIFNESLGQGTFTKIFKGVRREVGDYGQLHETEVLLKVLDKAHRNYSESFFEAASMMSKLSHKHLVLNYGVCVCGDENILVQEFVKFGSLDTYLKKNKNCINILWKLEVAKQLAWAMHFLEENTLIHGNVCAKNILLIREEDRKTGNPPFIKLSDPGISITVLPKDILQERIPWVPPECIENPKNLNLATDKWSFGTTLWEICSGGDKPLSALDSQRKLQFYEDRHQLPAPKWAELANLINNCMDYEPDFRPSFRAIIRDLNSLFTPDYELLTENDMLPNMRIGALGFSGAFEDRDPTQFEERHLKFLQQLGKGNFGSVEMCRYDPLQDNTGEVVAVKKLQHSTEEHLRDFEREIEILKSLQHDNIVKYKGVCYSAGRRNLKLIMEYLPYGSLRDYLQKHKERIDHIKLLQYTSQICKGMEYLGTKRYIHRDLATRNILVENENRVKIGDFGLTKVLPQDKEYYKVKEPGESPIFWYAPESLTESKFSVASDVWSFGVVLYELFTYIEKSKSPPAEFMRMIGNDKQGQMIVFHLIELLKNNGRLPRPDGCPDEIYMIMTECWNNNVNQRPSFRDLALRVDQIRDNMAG

On to `C[C@@H]1CCN(C(=O)CC#N)C[C@@H]1N(C)c1ncnc2[nH]ccc12` [Tofacitinib, reference compound], for which the “Cell IC50, ITK” value at ITK is listed as “Inactive”.

For the compound `C=CC(=O)N1C[C@H](Nc2ncnc3[nH]ccc23)CC[C@@H]1C` [Ritlecitinib, reference compound], the EC50 worked out at 33 nM in the test with ITK & JAK (IFNγ protein); 740 nM in the test on ITK (IL2 mRNA); […] in the test with JAK3 (pSTAT5, lymph); 52 nM in test [1]. Moreover, on JAK2, the “Cell IC50, JAK2” value is “Inactive”.
